Assay results as given in paper PMC10410440, “Preclinical PK investigation of a novel IDO1/TDO dual inhibitor—SHR9146 in mouse plasma and tissues by LC-MS/MS” (Frontiers in Oncology, 2023).
Where two headings read alike, the source gives them in different places.

Test: Plasma pharmacokinetics of SHR9146 in mice (LC-MS/MS, non-compartmental analysis)
Assay type: in vivo, ICR mice
Conditions: for MRT inf: read-out: MRT0-∞
Method: ICR mice with body weight 16–26 g were supplied by Shanghai Lingchang Biotechnology Co., Ltd. (animal breeding license number SCXK (Shanghai) 2013-0018) and housed at Shanghai Institute of Materia Medica, Chinese Academy of Sciences [animal use license number SYXK (Shanghai) 2015-0027]. The mice used in this study were fasted overnight for 12 h but had free access to water. Food was supplied 4 h post-dose. All experiments in this study were conducted in accordance with the Guidelines for the Care and Use of Laboratory Animals of Shanghai Institute of Materia Medica, Chinese Academy of Sciences.
A total of 30 mice were randomly assigned into five groups with equal numbers, males and females. One group was intravenously administrated with 5 mg/kg SHR9146 dissolved in […] plus 95% saline (adjusted pH to 4.0) under sterile conditions. The remaining four groups were administered respectively with a single dose of 20 , 40, or 80 mg/kg or multiple doses of 20 mg/kg twice daily for 7 days, by oral gavage of SHR9146 dissolved in 0.5% CMC-Na. Blood samples were obtained from the fossa orbitalis vein at 15 and 30 min and 1.0, 2.0, 4.0, 6.0, 8.0, 10.0, and 24.0 h after oral gavage administration. An additional 5-min time point was included for iv injection, as well as the pre-drug administration time points on the fifth, sixth, and seventh days in the multiple-dose group. The blood samples were collected in EDTA K2 anticoagulant blood collection tubes and centrifuged at 1,000 rpm for 5 min at 4°C. The supernatant plasma samples were thus produced.
Briefly as follows, an aliquot of 25-μL plasma or tissue homogenate was spiked with 100 μL of internal standard solution (1 μg/mL for plasma, 0.2 μg/mL for tissue homogenate) and 300 μL of methanol added and vortex mixed for 60 s. The mixture was then centrifuged at 14,000 rpm at 4°C for 5.0 min, and the supernatant was diluted with methanol–water (4:1, v/v) in a ratio of 1:9 for the plasma or 1:1 for the tissue homogenate, and 5 μL of the resulting solution was injected for the LC-MS/MS analysis.
The pharmacokinetic parameters of SHR9146 in mouse plasma were estimated by Phoenix 1.4 software using a non-compartmental model.
The mean concentration–time curves of SHR9146 in mouse plasma after a single oral gavage dose of 20, 40, or 80 mg/kg, or a single intravenous dose of 5 mg/kg, or the 7th-day steady state after twice-daily multiple oral doses of 20 mg/kg are shown in Figure 5 (Table S6).

[1] = 20 mg/kg i.g. single dose, all mice (Totol, 3 male + 3 female), plasma
[2] = 20 mg/kg i.g. single dose, female mice, plasma
[3] = 20 mg/kg i.g. single dose, male mice, plasma
[4] = 20 mg/kg oral twice daily for 7 days vs single 20 mg/kg oral dose, mice
[5] = 40 mg/kg i.g. single dose, male mice, plasma
[6] = 80 mg/kg i.g. single dose, all mice (Totol, 3 male + 3 female), plasma
[7] = 80 mg/kg i.g. single dose, female mice, plasma
[8] = 80 mg/kg i.g. single dose, male mice, plasma
[9] = ICR, mouse, iv, 5 mg/kg i.v. single dose, female mice, plasma
[10] = ICR, mouse, iv, 5 mg/kg i.v. single dose, male mice, plasma
[11] = both sexes, ICR, mouse, iv, 5 mg/kg i.v. single dose, all mice (Totol, 3 male + 3 female), plasma
[12] = both sexes, ICR, mouse, plasma, intravenous, 5 mg/kg, 5 mg/kg i.v., read-out: plasma drug concentration, individual mice #1-#6
[13] = both sexes, ICR, mouse, plasma, intravenous, 5 mg/kg, 5 mg/kg i.v., read-out: plasma drug concentration, mean (n=6)
[14] = both sexes, ICR, mouse, plasma, oral, 20 mg/kg, 20 mg/kg i.g. bid, 7 days, 7th day, read-out: plasma drug concentration, individual mice #1-#6
[15] = both sexes, ICR, mouse, plasma, oral, 20 mg/kg, 20 mg/kg i.g. bid, 7 days, 7th day, read-out: plasma drug concentration, mean (n=6)
[16] = both sexes, ICR, mouse, plasma, oral, 20 mg/kg, 20 mg/kg i.g. single, read-out: plasma drug concentration, mean (n=6)
[17] = both sexes, ICR, mouse, plasma, oral, 40 mg/kg, 40 mg/kg i.g. single, read-out: plasma drug concentration, mean (n=6)

OCCn1cc(-c2ccc(N3CCC([C@H]4c5c(F)cccc5-c5cncn54)CC3)cc2)cn1 [SHR9146]
plasma drug concentration, individual mice #1-#6 (5 mg/kg i.v., 4 h): BLQ | plasma drug concentration, individual mice #1-#6 (5 mg/kg i.v., 6 h): BLQ | plasma drug concentration, individual mice #1-#6 (5 mg/kg i.v., 8 h): BLQ | plasma drug concentration, individual mice #1-#6 (5 mg/kg i.v., 10 h): BLQ | plasma drug concentration, individual mice #1-#6 (5 mg/kg i.v., 24 h): BLQ | CL as share of the blood flow of mouse liver (5 mg/kg i.v., liver blood flow around 90 mL/min/kg (ref 23)): 13.3% | Vd as share of the total body fluid of mice (5 mg/kg i.v., total body fluid around 0.725 L/kg (ref 23)): 91.9% | CL (20 mg/kg i.g. bid, 7 days (7th-day steady state), all mice (Totol, 3 male + 3 female), plasma): 13.7 mL/min/kg | CL (20 mg/kg i.g. bid, 7 days (7th-day steady state), female mice, plasma): 13.7 mL/min/kg | CL (20 mg/kg i.g. bid, 7 days (7th-day steady state), male mice, plasma): 13.6 mL/min/kg | plasma drug concentration, individual mice #1-#6 (20 mg/kg i.g. bid, 7 days, 7th day, 0 h): BLQ | plasma drug concentration, individual mice #1-#6 (20 mg/kg i.g. bid, 7 days, 7th day, 8 h): BLQ | plasma drug concentration, individual mice #1-#6 (20 mg/kg i.g. bid, 7 days, 7th day, 10 h): BLQ | plasma drug concentration, individual mice #1-#6 (20 mg/kg i.g. bid, 7 days, 7th day, 24 h): BLQ | plasma drug concentration, individual mice #1-#6 (20 mg/kg i.g. bid, 7 days, Fifth day, pre-drug administration): BLQ | plasma drug concentration, individual mice #1-#6 (20 mg/kg i.g. bid, 7 days, Sixth day, pre-drug administration): BLQ | plasma drug concentration, individual mice #1-#6 (20 mg/kg i.g. single (dose cell empty, taken from the line above), 24 h): BLQ | CL [1]: 20.5 mL/min/kg | Vd [1]: 2.02 L/kg | CL [2]: 18.6 mL/min/kg | Vd [2]: 1.88 L/kg | CL [3]: 22.8 mL/min/kg | Vd [3]: 2.189 L/kg | plasma drug concentration, individual mice #1-#6 (20 mg/kg i.g. single, 4 h): BLQ | plasma drug concentration, individual mice #1-#6 (20 mg/kg i.g. single, 6 h): BLQ | plasma drug concentration, individual mice #1-#6 (20 mg/kg i.g. single, 8 h): BLQ | plasma drug concentration, individual mice #1-#6 (20 mg/kg i.g. single, 10 h): BLQ | steady-state AUC relative to single oral dose [4]: 1.55 fold | steady-state Cmax relative to single oral dose [4]: 1.08 fold | accumulation after multiple oral doses (20 mg/kg oral twice daily for 7 days, mouse plasma): no significant accumulation | CL [5]: 20.0 mL/min/kg | Vd [5]: 3.07 L/kg | plasma drug concentration, individual mice #1-#6 (40 mg/kg i.g. single, 6 h): BLQ | plasma drug concentration, individual mice #1-#6 (40 mg/kg i.g. single, 8 h): BLQ | plasma drug concentration, individual mice #1-#6 (40 mg/kg i.g. single, 10 h): BLQ | plasma drug concentration, individual mice #1-#6 (40 mg/kg i.g. single, 24 h): BLQ | CL [6]: 18.8 mL/min/kg | Vd [6]: 5.19 L/kg | CL [7]: 20.2 mL/min/kg | Vd [7]: 4.00 L/kg | CL [8]: 17.6 mL/min/kg | Vd [8]: 6.22 L/kg | plasma drug concentration, individual mice #1-#6 (80 mg/kg i.g. single, 6 h): BLQ | plasma drug concentration, individual mice #1-#6 (80 mg/kg i.g. single, 8 h): BLQ | plasma drug concentration, individual mice #1-#6 (80 mg/kg i.g. single, 24 h): BLQ | clearance [9]: 12.1 mL/min/kg | MRT inf [9]: 0.882 h | Vd (ICR, mouse, iv, 5 mg/kg i.v. single dose, female mice, plasma, read-out: Vd): 0.638 L/kg | clearance [10]: 12 mL/min/kg | MRT inf [10]: 0.965 h | Vd (ICR, mouse, iv, 5 mg/kg i.v. single dose, male mice, plasma, read-out: Vd): 0.694 L/kg | concentration at 8 h (ICR, mouse, plasma, intravenous, 5 mg/kg, 5 mg/kg i.v., 8 h, read-out: plasma drug concentration, individual mice #1-#6): 149 ng/mL | MRT inf (ICR, mouse, po, 20 mg/kg i.g. single dose, female mice, plasma): 1.68 h | MRT inf (ICR, mouse, po, 20 mg/kg i.g. single dose, male mice, plasma): 1.6 h | MRT inf (ICR, mouse, po, 40 mg/kg i.g. single dose, male mice, plasma): 2.56 h | MRT inf (ICR, mouse, po, 80 mg/kg i.g. single dose, female mice, plasma): 3.29 h | MRT inf (ICR, mouse, po, 80 mg/kg i.g. single dose, male mice, plasma): 5.9 h | clearance [11]: 12 mL/min/kg | MRT inf [11]: 0.923 h | Vd (both sexes, ICR, mouse, iv, 5 mg/kg i.v. single dose, all mice (Totol, 3 male + 3 female), plasma, read-out: Vd): 0.666 L/kg | concentration at 0.083 h [12]: 7880 ng/mL | concentration at 0.083 h [13]: 6860 ng/mL | concentration at 0.25 h [12]: 5210 ng/mL | concentration at 0.25 h [13]: 5230 ng/mL | concentration at 0.5 h [12]: 4530 ng/mL | concentration at 0.5 h [13]: 3610 ng/mL | concentration at 1 h [12]: 2450 ng/mL | concentration at 1 h [13]: 2760 ng/mL | concentration at 2 h [13]: 605 ng/mL | concentration at 4 h (both sexes, ICR, mouse, plasma, intravenous, 5 mg/kg, 5 mg/kg i.v., 4 h, read-out: plasma drug concentration, mean (n=6)): 126 ng/mL | AUC(0-inf) (both sexes, ICR, mouse, plasma, iv, 5 mg/kg, 5 mg/kg i.v. single dose, all mice (Totol, 3 male + 3 female), plasma): 6930 ng·h/mL | AUC(0-t) (both sexes, ICR, mouse, plasma, iv, 5 mg/kg, 5 mg/kg i.v. single dose, all mice (Totol, 3 male + 3 female), plasma, read-out: AUC0-t): 6760 ng·h/mL | half-life (both sexes, ICR, mouse, plasma, iv, 5 mg/kg, 5 mg/kg i.v. single dose, all mice (Totol, 3 male + 3 female), plasma, read-out: t1/2 (converted)): 0.713 h | half-life (both sexes, ICR, mouse, plasma, mice, all doses and routes except the high oral dose (80 mg/kg), read-out: mean terminal half-life in plasma, range): 0.699 to 1.66 h | concentration at 0.25 h [14]: 4300 ng/mL | concentration at 0.25 h [15]: 5710 ng/mL | concentration at 0.5 h [15]: 8020 ng/mL | concentration at 1 h [14]: 9900 ng/mL | concentration at 1 h [15]: 9430 ng/mL | concentration at 2 h [15]: 6170 ng/mL | concentration at 3 h [15]: 3170 ng/mL | concentration at 4 h (both sexes, ICR, mouse, plasma, oral, 20 mg/kg, 20 mg/kg i.g. bid, 7 days, 7th day, 4 h, read-out: plasma drug concentration, mean (n=6)): 1590 ng/mL | concentration at 6 h (both sexes, ICR, mouse, plasma, oral, 20 mg/kg, 20 mg/kg i.g. bid, 7 days, 7th day, 6 h, read-out: plasma drug concentration, mean (n=6)): 453 ng/mL | concentration at 8 h (both sexes, ICR, mouse, plasma, oral, 20 mg/kg, 20 mg/kg i.g. bid, 7 days, 7th day, 8 h, read-out: plasma drug concentration, mean (n=6)): 58 ng/mL | concentration at 10 h (both sexes, ICR, mouse, plasma, oral, 20 mg/kg, 20 mg/kg i.g. bid, 7 days, 7th day, 10 h, read-out: plasma drug concentration, individual mice #1-#6): 58 ng/mL | concentration at 24 h (both sexes, ICR, mouse, plasma, oral, 20 mg/kg, 20 mg/kg i.g. bid, 7 days, 7th day, 24 h, read-out: plasma drug concentration, individual mice #1-#6): 54 ng/mL | concentration at 0.25 h [16]: 7500 ng/mL | concentration at 0.5 h [16]: 8140 ng/mL | concentration at 1 h [16]: 4620 ng/mL | concentration at 2 h [16]: 3980 ng/mL | concentration at 3 h [16]: 2950 ng/mL | concentration at 4 h (both sexes, ICR, mouse, plasma, oral, 20 mg/kg, 20 mg/kg i.g. single, 4 h, read-out: plasma drug concentration, mean (n=6)): 526 ng/mL | concentration at 6 h (both sexes, ICR, mouse, plasma, oral, 20 mg/kg, 20 mg/kg i.g. single, 6 h, read-out: plasma drug concentration, individual mice #1-#6): 242 ng/mL | concentration at 8 h (both sexes, ICR, mouse, plasma, oral, 20 mg/kg, 20 mg/kg i.g. single, 8 h, read-out: plasma drug concentration, individual mice #1-#6): 194 ng/mL | concentration at 0.25 h [17]: 4830 ng/mL | concentration at 0.5 h [17]: 5310 ng/mL
